Reference: the NIST ThermoML archive (doi:10.1016/j.jct.2014.04.017)

Settings: 101.33 kPa, Liquid, Buoyancy - hydrostatic balance

CCCn1cc[n+](C)c1.F[P-](F)(F)(F)(F)F [1-methyl-3-propylimidazolium hexafluorophosphate]
Settings | mass density [kg/m3]
303.08 K | 1410.96
313.18 K | 1402.37
318.04 K | 1398.33
323.07 K | 1393.53
328.22 K | 1389.63
333.39 K | 1385.32
338.41 K | 1381.11
343.27 K | 1377.03
348.16 K | 1372.97
352.56 K | 1369.14
358.11 K | 1364.85
364.89 K | 1359.36

CCCCn1cc[n+](C)c1C.F[P-](F)(F)(F)(F)F [1-butyl-2,3-dimethylimidazolium hexafluorophosphate]
Settings | mass density [kg/m3]
308.17 K | 1342.4
313.09 K | 1338.43
318.12 K | 1334.34
323.15 K | 1330.39
328.24 K | 1326.32
333.37 K | 1322.54
338.85 K | 1318.34
343.33 K | 1314.8
347.97 K | 1310.87
352.71 K | 1307.2
357.94 K | 1302.89
364.63 K | 1298.26

CCCCCC[n+]1ccn(C)c1.O=S(=O)([N-]S(=O)(=O)C(F)(F)F)C(F)(F)F
Settings | mass density [kg/m3]
262.98 K | 1405.31
268.26 K | 1400.21
272.74 K | 1395.9
278.03 K | 1390.98
283.18 K | 1385.8
288.12 K | 1381.67
292.84 K | 1377.27
298.15 K | 1372.76
303.13 K | 1368.35
308.26 K | 1362.94
313.34 K | 1358.8
318.28 K | 1354.33
323.34 K | 1349.1
328.18 K | 1345.78
332.77 K | 1341.44
338.51 K | 1336.76
343.65 K | 1332.79
348.22 K | 1328.79
352.66 K | 1324.84
358.06 K | 1320.79
364.78 K | 1314.72

CCCC[n+]1cccc(C)c1.F[P-](F)(F)(F)(F)F [1-butyl-3-methylpyridinium hexafluorophosphate]
Settings | mass density [kg/m3]
322.98 K | 1321.09
327.57 K | 1317.44
333.44 K | 1312.89
338.78 K | 1308.72
343.67 K | 1304.93
348.19 K | 1301.53
353.1 K | 1297.87
358.08 K | 1294.06
364.61 K | 1289.01

CCn1cc[n+](C)c1.O=S(=O)([N-]S(=O)(=O)C(F)(F)F)C(F)(F)F
Settings | mass density [kg/m3]
261.46 K | 1556.58
268.29 K | 1548.72
273.3 K | 1544.02
278.37 K | 1539.04
282.48 K | 1535.02
287.45 K | 1529.96
293.11 K | 1524.41
298.13 K | 1519.52
302.98 K | 1514.33
308.32 K | 1508.35
313.89 K | 1503.28
318.09 K | 1498.65
323.34 K | 1493.84
328.03 K | 1488.18
333.55 K | 1483.58
337.88 K | 1479.01
342.95 K | 1473.82
348.1 K | 1469.36
352.98 K | 1464.95
357.53 K | 1460.04
363.55 K | 1453.65

CCCC[n+]1ccn(C)c1.O=S(=O)([N-]S(=O)(=O)C(F)(F)F)C(F)(F)F
Settings | mass density [kg/m3]
274.86 K | 1458.44
277.17 K | 1456.4
281.91 K | 1452.1
287.89 K | 1446.21
293.45 K | 1441.4
298.34 K | 1436.71
303.07 K | 1432.1
308.18 K | 1426.64
313.04 K | 1422.13
318.02 K | 1417.45
323.1 K | 1412.39
328.17 K | 1407.64
333.42 K | 1403.16
338.42 K | 1398.52
343.02 K | 1394.25
348.36 K | 1389.71
352.89 K | 1385.06
358.03 K | 1380.66
364.37 K | 1374.57

C[n+]1cc[nH]c1.O=S(=O)([N-]S(=O)(=O)C(F)(F)F)C(F)(F)F [1-methylimidazolium bis(trifluoromethylsulfonyl)imide]
Settings | mass density [kg/m3]
323.28 K | 1614.04
325.58 K | 1610.84
328.01 K | 1607.46
330.51 K | 1605.18
333.62 K | 1601.54
335.65 K | 1599.35
338.58 K | 1596.52
340.97 K | 1593.47
343.62 K | 1590.71
